Experimental findings from PMC11876601 (Molecular Systems Biology, 2025) are described below.

Each structure is given as a SMILES string. “And” between values parts separate entries of the source, which are not always exact repeats. Identical values can stand only once. Like-named read-outs stand apart in the source and are kept apart here.

Common to all, as to type: cell-based, human
In assay [1] the test system is p-sites in PaTu-8988-T cells. The assay can be described thus: Phosphoproteomics GEM + Elimusertib vs. GEM (non-decryptM). On the procedure: (§1) Cell culture medium was replaced 24 h after seeding. […] For time point 0, AsPC-1 cells were treated with a vehicle and lysed immediately. The final DMSO concentration in all experiments was 0.2%.
(§2) Oxidized methionine, N-terminal acetylation, and phosphorylation (STY) were set as variable modification, and cysteine carbamidomethylation was set as fixed modification. All other search parameters were kept as default, except for protein FDR which was set to 1. […] Potential contaminants and reversed hits were removed, and only peptides with unambiguously assigned phosphorylation sites with a localization probability of > 0.75 were retained. To acquire site-level quantification values, the corrected reporter ion intensities of peptides containing the same phosphosite(s) were summed up. Median centering of corrected TMT reporter channel intensities was performed. […] Channel 11 served as a vehicle for the chemodrug treatment and was not subjected to curve fitting. Instead, row-wise normalization was performed across all four TMT-batches using the medians of channels 10 and 11. […] Phosphoproteomic experiments in six additional cell lines (not dose-resolved) were median-centered within each TMT-batch, prior to row-wise normalization across all TMT-batches using a common channel filled with AsPC-1 lysate (Appendix Table S5). Two-sided t-test analysis and multiple hypothesis testing correction was performed in R using the same parameters and thresholds as described above.

Assay [2] concerns p-sites in PSN-1 cells. The description is as above. How it is done:
as §1, §2

Assay [3] deals with p-sites in PANC-1 cells. Described as above. On the procedure:
as §1, §2

The test system of assay [4] is p-sites in MiaPaCa-2 cells. The description is as above. How it is done:
as §1, §2

In assay [5] the test system is p-sites in Capan-1 cells. The assay is described as above. On the procedure: as §1, §2
Assay [6] deals with p-sites in Dan-G cells. The assay is described as above. On the procedure: as §1, §2
The test system of assay [7] is Suit2-07 cells. The assay can be described thus: Cell proliferation assay, GEM + ATR inhibitor (Incucyte confluence, 72 h).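 For all read-outs here: Suit2-07 cells grown in 96-well plates at 37 °C, 5% CO2, raw 72 h confluence taken without normalizing to starting confluence, each experiment done in triplicate.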 Conditions: for EC50: Homo sapiens, experiment GEM (GEM alone, in the series of the ATRi named in column Drug); for Response: R1, in % (unit assumed).
Description: Cells were seeded at 5000 cells/well into 96-well flat bottom plates (Eppendorf) and allowed to attach overnight. […] Cells were incubated for 72 h at 37 °C and 5% CO2. Cell confluence readouts at 72 h were either normalized to their initial confluence using the Incucyte software (AsPC-1) or used without prior normalization (all others). […] Each experiment was performed in triplicates, the data was plotted as mean ± standard deviation (s.d.).

For `C[C@@H]1COCCN1c1cc(-c2ccnn2C)c2ccnc(-c3ccn[nH]3)c2n1` [Elimusertib], the “Mean log2 PTM response (GEM+Elimusertib vs. GEM)” value in assay [1] is -1.04; in assay [2], -1.04 and -1.16; in assay [3] it was -1.13; in assay [4], -1.06; in assay [5], -1.06; in assay [6] it was -1.06 and -1.18 and -1.05.
`Nc1ccn([C@@H]2O[C@H](CO)[C@@H](O)C2(F)F)c(=O)n1` [GEM, Gemcitabine]: the EC50 in assay [7] (72 h, Suit2-07, -log10 of EC50 [M], read-out: pEC50 (converted)) was 8.32e-09 M; in assay [7] (72 h, Suit2-07, mean (one replicate), read-out: EC50 mean), 8.26e-09 M; in assay [7] (72 h, Suit2-07, replicate R1, read-out: EC50) it was 8.26e-09 M; in assay [7] (Suit2-07, -log10 of EC50 [M], read-out: pEC50 (converted)), 1.05e-08 M. Further, the Response in assay [7] (Suit2-07, GEM 1 nM, ATRi 0 nM (GEM)) was 97.46; in assay [7] (Suit2-07, GEM 3 nM, ATRi 0 nM (GEM)), 93.41; in assay [7] (Suit2-07, GEM 10 nM, ATRi 0 nM (GEM)), 45.15; in assay [7] (Suit2-07, GEM 30 nM, ATRi 0 nM (GEM)), 20.11; in assay [7] (Suit2-07, GEM 3000 nM, ATRi 0 nM (GEM)) it was 10.86; in assay [7] (Suit2-07, experiment GEM, GEM 1 nM, ATRi 0 nM) it was 98.60 and 97.96 and 97.60. For the same compound, the Response is 96.04 and 96.69 and 98.44 in assay [7] (Suit2-07, experiment GEM, GEM 3 nM, ATRi 0 nM); 49.03 and 57.12 and 55.81 in assay [7] (Suit2-07, experiment GEM, GEM 10 nM, ATRi 0 nM); 23.93 and 25.24 and 25.44 in assay [7] (Suit2-07, experiment GEM, GEM 30 nM, ATRi 0 nM); 15.01 in assay [7] (Suit2-07, experiment GEM, GEM 100 nM, ATRi 0 nM); 14.46 in assay [7] (Suit2-07, experiment GEM, GEM 300 nM, ATRi 0 nM); 10.89 in assay [7] (Suit2-07, experiment GEM, GEM 1000 nM, ATRi 0 nM). Further, in assay [7] (Suit2-07, experiment GEM, GEM 3000 nM, ATRi 0 nM), the Response was found to be 10.34. In addition, the “Mean log2 TMT reporter ion intensity” value in assay [1] (source data 5F (p-site not named), PATU8988T) worked out at 19.97; in assay [2] (source data 5F (p-site not named), PSN1), 19.41; in assay [3] (source data 5F (p-site not named), PANC1), 18.30; in assay [4] (source data 5F (p-site not named), MIAPACA2), 18.24; in assay [5] (source data 5F (p-site not named), CAPAN1), 20.29; in assay [6] (source data 5F (p-site not named), DANG), 20.35.
